Laboratory results from the NIST ThermoML archive (doi:10.1021/je0342318).
Numbers after ± are expanded uncertainties.

Key:
[1] = Liquid; for mass density: 298.15 K, 101.33 kPa
[2] = refractive index (Na D-line) (dimensionless); conditions: 298.15 K; 101.33 kPa; Liquid

Structure (SMILES) | mass density ([1]; Vibrating tube method) [kg/m3] | Normal boiling temperature [1] [°C] | refractive index [2] | mass density [1] [kg/m3]
Cc1ccc(C)cc1 [1,4-dimethylbenzene] | 856.55 ± 0.56 | 138.08 ± 0.5 | 1.493 ± 0.001 | 
CC1CCCCC1 [methylcyclohexane] |  | 100.81 ± 0.5 | 1.4204 ± 0.0006 | 764.87 ± 0.44
CCO [ethanol] | 785.04 ± 0.51 | 78.26 ± 0.1 | 1.3592 ± 0.0006 | 
